Where a name gives a salt, the structure may show the parent alone. Read-outs that look alike come from different tables or passages of the source.
Test system: Pfeiffer cells, lymphoma cells having EZH2 mutation (A677G)
Test: Proliferation inhibition of cells of hematologic malignancies (CCK-8, 11 days)
Assay type: cell-based
Conditions: 11 days culture, read-out: Cell proliferation inhibitory effect (IC50)
Description: The growth inhibitory activity of 1,3-benzodioxole derivative compounds represented by chemical formula I of the present invention against Pfeiffer cells, which are lymphoma cells having EZH2 mutation (A677G), was evaluated.
Pfeiffer was cultured using RPMI1640 containing 10% fetal bovine serum. The cells were inoculated into wells of a 96-well culture dish at 10,000 cells each, and cultured for 11 days after treating with the test material for each concentration. For 11 days, the test material was replaced every three to four days. After culturing, the cells were treated with a cell counting kit-8 (CCK-8) reagent for each well, absorbance was measured at 450 nm, and IC50 values for cell proliferation were obtained through curve fitting of non-linear regression in the GraphPad program (GraphPad Prism 5.0 software).

IC50	IC50 (Homo sapiens, Pfeiffer, 264 h)	Structure (SMILES)
≥ 0.1 µM	–	CCN1CCN(c2ncc(-c3cc(C(=O)NCc4c(SC)cc(C)[nH]c4=O)c(C)c4c3OC(C)(C3CCN(CC(F)(F)F)CC3)O4)cn2)CC1 (single isomer, unassigned) [Compound 77, 7-(2-(4-ethylpiperazin-1-yl)pyrimidin-5-yl)-2,4-dimethyl-N-((6-methyl-4-(methylthio)-2-oxo-1,2-dihydropyridin-3-yl)methyl)-2-(1-(2,2,2-trifluoroethyl)piperidin-4-yl)benzo[d][1,3]dioxole-5-carboxamide]
–	≤ 0.01 µM	CSc1cc(C)[nH]c(=O)c1CNC(=O)c1cc(-c2ccc(N3CCSCC3)nc2)c2c(c1C)OC(C)(C1CCN(CC(F)(F)F)CC1)O2 (centres unmarked) [Compound 34, 2,4-dimethyl-N-((6-methyl-4-(methylthio)-2-oxo-1,2-dihydropyridin-3-yl)methyl)-7-(6-thiomorpholinopyridin-3-yl)-2-(1-(2,2,2-trifluoroethyl)piperidin-4-yl)benzo[d][1,3]dioxole-5-carboxamide]
≥ 0.1 µM	–	CSc1cc(C)[nH]c(=O)c1CNC(=O)c1cc(-c2ccc(N3CCOCC3)nc2)c2c(c1C)OC(C)(C1CCN(CC(F)F)CC1)O2 (single isomer, unassigned) [Compound 65, 2-(1-(2,2-difluoroethyl)piperidin-4-yl)-2,4-dimethyl-N-((6-methyl-4-(methylthio)-2-oxo-1,2-dihydropyridin-3-yl)methyl)-7-(6-morpholinopyridin-3-yl)benzo[d][1,3]dioxole-5-carboxamide]
–	≤ 0.01 µM	CSc1cc(C)[nH]c(=O)c1CNC(=O)c1cc(-c2ccsc2)c2c(c1C)OC(C)([C@H]1CC[C@H](N(C)C)CC1)O2 (stereo partly drawn) [Compound 11, 2-(trans-4-(dimethylamino)cyclohexyl)-2,4-dimethyl-N-((6-methyl-4-(methylthio)-2-oxo-1,2-dihydropyridin-3-yl)methyl)-7-(thiophene-3-yl)benzo[d][1,3]dioxole-5-carboxamide]
–	≥ 0.1 µM	CSc1cc(C)[nH]c(=O)c1CNC(=O)c1cc(-c2ccc3c(c2)OC(F)(F)O3)c2c(c1C)OC(C)(C1CCN(CC(F)(F)F)CC1)O2 (centres unmarked) [Compound 93, 2′,2′-difluoro-2,7-dimethyl-N-((6-methyl-4-(methylthio)-2-oxo-1,2-dihydropyridin-3-yl)methyl)-2-(1-(2,2,2-trifluoroethyl)piperidin-4-yl)-[4,5′-bibenzo[d][1,3]dioxol]-6-carboxamide]
≤ 0.01 µM	–	CSc1cc(C)[nH]c(=O)c1CNC(=O)c1cc(-c2cnc(N3C[C@@H](C)O[C@@H](C)C3)nc2)c2c(c1C)OC(C)([C@H]1CC[C@H](N(C)CC(F)(F)F)CC1)O2 (stereo partly drawn) [Compound 23, 7-(2-((2S,6R)-2,6-dimethylmorpholino)pyrimidin-5-yl)-2,4-dimethyl-2-(trans-4-(methyl(2,2,2-trifluoroethyl)amino)cyclohexyl)-N-((6-methyl-4-(methylthio)-2-oxo-1,2-dihydropyridin-3-yl)methyl)benzo[d][1,3]dioxole-5-carboxamide]
–	≤ 0.01 µM	CCN(C)c1ccc(-c2cc(C(=O)NCc3c(SC)cc(C)[nH]c3=O)c(C)c3c2OC(C)(C2CCN(CC(F)F)CC2)O3)cn1 (single isomer, unassigned) [Compound 88, 2-(1-(2,2-difluoroethyl)piperidin-4-yl)-7-(6-(ethyl(methyl)amino)pyridin-3-yl)-2,4-dimethyl-N-((6-methyl-4-(methylthio)-2-oxo-1,2-dihydropyridin-3-yl)methyl)benzo[d][1,3]dioxole-5-carboxamide]
–	≤ 0.01 µM	CSc1cc(C)[nH]c(=O)c1CNC(=O)c1cc(-c2cnc(N3CCC4(CC3)COC4)nc2)c2c(c1C)OC(C)([C@H]1CC[C@H](N(C)C)CC1)O2 (stereo partly drawn) [Compound 15, 7-(2-(2-oxa-7-azaspiro[3.5]nonan-7-yl)pyrimidin-5-yl)-2-(trans-4-(dimethylamino)cyclohexyl)-2,4-dimethyl-N-((6-methyl-4-(methylthio)-2-oxo-1,2-dihydropyridin-3-yl)methyl)benzo[d][1,3]dioxole-5-carboxamide]
≥ 0.1 µM	–	CSc1cc(C)[nH]c(=O)c1CNC(=O)c1cc(-c2cnc(N3CCOCC3)nc2)c2c(c1C)OC(C)(C1CCN(CC(F)(F)F)CC1)O2 (centres unmarked) [Compound 70, 2,4-dimethyl-N-((6-methyl-4-(methylthio)-2-oxo-1,2-dihydropyridin-3-yl)methyl)-7-(2-morpholinopyrimidin-5-yl)-2-(1-(2,2,2-trifluoro)piperidin-4-yl)benzo[d][1,3]dioxole-5-carboxamide]
–	≤ 0.01 µM	CCN(C)c1ccc(-c2cc(C(=O)NCc3c(SC)cc(C)[nH]c3=O)c(C)c3c2OC(C)(C2CCN(CC(F)(F)F)CC2)O3)cn1 (single isomer, unassigned) [Compound 86, 7-(6-(ethyl(methyl)amino)pyridin-3-yl)-2,4-dimethyl-N-((6-methyl-4-(methylthio)-2-oxo-1,2-dihydropyridin-3-yl)methyl)-2-(1-(2,2,2-trifluoroethyl)piperidin-4-yl)benzo[d][1,3]dioxole-5-carboxamide]
–	≥ 0.1 µM	CSc1cc(C)[nH]c(=O)c1CNC(=O)c1cc(-c2ccc3occc3c2)c2c(c1C)OC(C)(C1CCN(CC(F)(F)F)CC1)O2 (centres unmarked) [Compound 96, 7-(benzofuran-5-yl)-2,4-dimethyl-N-((6-methyl-4-(methylthio)-2-oxo-1,2-dihydropyridin-3-yl)methyl)-2-(1-(2,2,2-trifluoroethyl)piperidin-4-yl)benzo[d][1,3]dioxole-5-carboxamide]
–	≤ 0.01 µM	CSc1cc(C)[nH]c(=O)c1CNC(=O)c1cc(-c2ccc(N3C[C@@H](C)O[C@@H](C)C3)nc2)c2c(c1C)OC(C)([C@H]1CC[C@H](N)CC1)O2 (stereo partly drawn) [Compound 100, 2-(trans-4-aminocyclohexyl)-7-(6-((2S,6R)-2,6-dimethylmorpholino)pyridin-3-yl)-2,4-dimethyl-N-((6-methyl-4-(methylthio)-2-oxo-1,2-dihydropyridin-3-yl)methyl)benzo[d][1,3]dioxole-5-carboxamide hydrochloride salt]
–	≤ 0.01 µM	CSc1cc(C)[nH]c(=O)c1CNC(=O)c1cc(-c2c(C)noc2C)c2c(c1C)OC(C)([C@H]1CC[C@H](N(C)C)CC1)O2 (stereo partly drawn) [Compound 13, 2-(trans-4-(dimethylamino)cyclohexyl)-7-(3,5-dimethylisoxazol-4-yl)-2,4-dimethyl-N-((6-methyl-4-(methylthio)-2-oxo-1,2-dihydropyridin-3-yl)methyl)benzo[d][1,3]dioxole-5-carboxamide]
≥ 0.1 µM	–	CSc1cc(C)[nH]c(=O)c1CNC(=O)c1cc(-c2cnc(N3CCOCC3)nc2)c2c(c1C)OC(C)(C1CCN(CC(F)F)CC1)O2 (single isomer, unassigned) [Compound 72, 2-(1-(2,2-difluoroethyl)piperidin-4-yl)-2,4-dimethyl-N-((6-methyl-4-(methylthio)-2-oxo-1,2-dihydropyridin-3-yl)methyl)-7-(2-morpholinopyrimidin-5-yl)benzo[d][1,3]dioxole-5-carboxamide]
–	≤ 0.01 µM	COc1ccc(-c2cc(C(=O)NCc3c(SC)cc(C)[nH]c3=O)c(C)c3c2OC(C)(C2CCN(CC(F)(F)F)CC2)O3)cn1 (centres unmarked) [Compound 36, 7-(6-methoxypyridin-3-yl)-2,4-dimethyl-N-((6-methyl-4-(methylthio)-2-oxo-1,2-dihydropyridin-3-yl)methyl)-2-(1-(2,2,2-trifluoroethyl)piperidin-4-yl)benzo[d][1,3]dioxole-5-carboxamide]
–	≤ 0.01 µM	CSc1cc(C)[nH]c(=O)c1CNC(=O)c1cc(-c2ccoc2)c2c(c1C)OC(C)([C@H]1CC[C@H](N(C)C)CC1)O2 (stereo partly drawn) [Compound 18, 2-(trans-4-(dimethylamino)cyclohexyl)-7-(furan-3-yl)-2,4-dimethyl-N-((6-methyl-4-(methylthio)-2-oxo-1,2-dihydropyridin-3-yl)methyl)benzo[d][1,3]dioxole-5-carboxamide]
–	≤ 0.01 µM	CCN(C)c1ncc(-c2cc(C(=O)NCc3c(SC)cc(C)[nH]c3=O)c(C)c3c2OC(C)(C2CCN(CC(F)F)CC2)O3)cn1 (single isomer, unassigned) [Compound 81, 2-(1-(2,2-difluoroethyl)piperidin-4-yl)-7-(2-(ethyl(methyl)amino)pyrimidin-5-yl)-2,4-dimethyl-N-((6-methyl-4-(methylthio)-2-oxo-1,2-dihydropyridin-3-yl)methyl)benzo[d][1,3]dioxole-5-carboxamide]
–	0.01 to 0.1 µM	CSc1cc(C)[nH]c(=O)c1CNC(=O)c1cc(-c2ccc(N3C[C@@H](C)O[C@@H](C)C3)nc2)c2c(c1C)OC(C)([C@H]1CC[C@H](N3CC(OCC(F)(F)F)C3)CC1)O2 (some centres unmarked) [Compound 102]
–	≤ 0.01 µM	CSc1cc(C)[nH]c(=O)c1CNC(=O)c1cc(-c2ccc(N3CCOCC3)nc2)c2c(c1C)OC(C)(C1CCN(CC(F)(F)F)CC1)O2 (centres unmarked) [Compound 61, 2,4-dimethyl-N-((6-methyl-4-(methylthio)-2-oxo-1,2-dihydropyridin-3-yl)methyl)-7-(6-morpholinopyridin-3-yl)-2-(1-(2,2,2-trifluoro)piperidin-4-yl)benzo[d][1,3]dioxole-5-carboxamide]
–	≤ 0.01 µM	CSc1cc(C)[nH]c(=O)c1CNC(=O)c1cc(-c2cnc(N3CCCCC3)nc2)c2c(c1C)OC(C)(C1CCN(CC(F)(F)F)CC1)O2 (centres unmarked) [Compound 39, 2,4-dimethyl-N-((6-methyl-4-(methylthio)-2-oxo-1,2-dihydropyridin-3-yl)methyl)-7-(2-(piperidin-1-yl)pyrimidin-5-yl)-2-(1-(2,2,2-trifluoroethyl)piperidin-4-yl)benzo[d][1,3]dioxole-5-carboxamide]
